Measurements taken from patent publication US9834548B2, “Pyridazine compounds as JAK inhibitors” (Portola Pharmaceuticals, Inc., priority 2014, dated 2017).

Tests used:
Assay type in all cases: biochemical
JAK2 = JAK2 (Homo sapiens (Human), UniProt O60674); assay: Purified kinase assay (Z'-LYTE), JAK2; conditions: Table 1; read-out: JAK2 IC50
Description: (§1) JAK and TYK2 tyrosine phosphorylation activity is measured using the Z′-LYTE™ Technology developed by Invitrogen Corporation (Carlsbad, Calif.). For JAK1, JAK2 and JAK3 the Z′-LYTE™ Kinase Assay Kit-Tyr6 Peptide (part number PV4122) was used. For TYK2 the Z′-LYTE™ Kinase Assay Kit-Tyr6 Peptide (part number PV3192) was used. The Z′-LYTE™ biochemical assay employs a fluorescence resonance energy transfer (FRET) coupled-enzyme format and is based on the differential sensitivity of phosphorylated and non-phosphorylated peptides to proteolytic cleavage. The assay uses a synthetic peptide substrate that is labeled with a donor fluorophore (coumarin) and an acceptor fluorophore (fluorescein) that make up a FRET pair. In the primary reaction (the Kinase Reaction), the kinase transfers the γ-phosphate of ATP to a single tyrosine residue on the substrate, while the presence of a kinase inhibitor in the primary reaction suppresses phosphorylation. In the secondary reaction (the Development Reaction), a site-specific protease (the Development Reagent) is added. The development buffer quenches the Kinase Reaction, while the protease recognizes and cleaves non-phosphorylated Z′-LYTE™ peptide substrate. Cleavage disrupts FRET between the donor and acceptor fluorophores on the non-phosphorylated substrate, while uncleaved, phosphorylated substrate maintains FRET.
(§2) To test the ability of candidate molecules to inhibit JAK tyrosine phosphorylation activity, molecules are reconstituted in 100% DMSO and serially diluted 1:10 in polypropylene v-bottom microtiter plates. The candidate molecules are then diluted 1:25 into kinase buffer and 2.5 μl transferred into duplicate wells of a 384 well low volume black microtiter assay plate (Corning, USA). The final DMSO concentration in the assay is 1%. The kinase reaction contains 2.5 μl of a candidate molecule, 5 μl of catalytic domain recombinant Kinase enzyme+Tyr peptide substrate (Invitrogen, CA) and ATP (Invitrogen, CA). The kinase reaction is allowed to proceed for 1 hour at room temperature. The protease reaction is initiated by the addition of Development Reagent (Invitrogen, CA). After 1 hour incubation at room temperature the fluorescence is measured using a FlexStation plate reader (Molecular Devices, Sunnyvale, Calif.). The reader settings used are as follows: Fluorescence mode, endpoint, top read, excitation 400 nm, emission 445 nm and 520 nm, Auto Cutoff 435 nm and 515 nm, PMT sensitivity high, 6 reads per well Inhibition of JAK activity is calculated as the percent phosphorylation of substrate in the presence of inhibitor compared to the percent phosphorylation of substrate in the absence of inhibitor. IC50's were derived using Xlfit 4.3 (IDBS, UK), 4 parameter logistic model 205: Y=(A+((B−A)/(1+((C/x)^D)))).

JAK3 = JAK3 (Homo sapiens (Human), UniProt P52333); assay: Purified kinase assay (Z'-LYTE), JAK3; conditions: Table 1; read-out: JAK3 IC50
Chain of JAK3 (P52333 822-1111): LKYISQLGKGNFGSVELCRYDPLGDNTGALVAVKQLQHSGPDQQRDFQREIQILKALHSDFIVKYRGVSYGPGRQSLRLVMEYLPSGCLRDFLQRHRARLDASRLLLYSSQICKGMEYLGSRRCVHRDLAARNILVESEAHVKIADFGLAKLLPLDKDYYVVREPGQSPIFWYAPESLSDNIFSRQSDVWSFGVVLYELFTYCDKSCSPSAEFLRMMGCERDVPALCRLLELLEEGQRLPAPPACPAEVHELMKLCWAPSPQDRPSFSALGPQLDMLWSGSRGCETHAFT
Description: as §1, §2

JAK1 = JAK1 (Homo sapiens (Human), UniProt P23458); assay: Purified kinase assay (Z'-LYTE), JAK1; conditions: Table 1; read-out: JAK1 IC50
Chain of JAK1 (P23458 875-1153): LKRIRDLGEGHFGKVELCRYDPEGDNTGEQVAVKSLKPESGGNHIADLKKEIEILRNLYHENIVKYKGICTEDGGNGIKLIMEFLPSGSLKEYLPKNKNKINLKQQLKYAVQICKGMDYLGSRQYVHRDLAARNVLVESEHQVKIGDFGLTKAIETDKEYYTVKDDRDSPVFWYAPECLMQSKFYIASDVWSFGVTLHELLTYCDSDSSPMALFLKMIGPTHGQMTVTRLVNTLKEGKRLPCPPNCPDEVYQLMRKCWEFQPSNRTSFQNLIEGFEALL
Description: as §1, §2

Chain of JAK2 (O60674 849-1124): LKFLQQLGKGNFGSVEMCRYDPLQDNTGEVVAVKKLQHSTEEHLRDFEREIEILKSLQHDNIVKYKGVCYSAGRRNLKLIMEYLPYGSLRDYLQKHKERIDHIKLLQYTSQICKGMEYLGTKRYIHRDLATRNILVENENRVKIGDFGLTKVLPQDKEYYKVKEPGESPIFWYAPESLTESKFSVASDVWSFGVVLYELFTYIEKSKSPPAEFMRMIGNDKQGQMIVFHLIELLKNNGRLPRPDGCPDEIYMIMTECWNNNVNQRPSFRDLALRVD

Row | IC50 (JAK2) [nM] | IC50 (JAK3) [nM] | IC50 (JAK1) [nM] | SMILES
1 | 100 to 1000 | 10 to 100 | > 1000 | Cn1ccc(Nc2cc(NCc3cccc(F)c3)c(C(N)=O)nn2)n1 [Compound 67]
2 | > 1000 | 10 to 100 | > 1000 | CC(=O)N1CCN(c2ccc(Nc3cc(NCc4cccc(-n5ccnc5)c4)c(C(N)=O)nn3)cc2)CC1 [Compound 68]
3 | > 1000 | 10 to 100 | > 1000 | CC(=O)N1CCN(c2ccc(Nc3cc(NCc4cccc(-c5ccncc5)c4)c(C(N)=O)nn3)cc2)CC1 [Compound 69]
4 | 100 to 1000 | 10 to 100 | > 1000 | CC(=O)N1CCN(c2ccc(Nc3cc(NCc4cccc(-c5cccnc5)c4)c(C(N)=O)nn3)cc2)CC1 [Compound 70]
5 | > 1000 | 100 to 1000 | > 1000 | CC(=O)N1CCN(c2ccc(Nc3cc(NCc4cccc(-c5ccccn5)c4)c(C(N)=O)nn3)cc2)CC1 [Compound 71]
6 | 100 to 1000 | 10 to 100 | > 1000 | CC(=O)N1CCN(c2ccc(Nc3cc(NCc4cccc(C#N)c4)c(C(N)=O)nn3)cc2)CC1 [Compound 72]
7 | 10 to 100 | 1 to 10 | 100 to 1000 | NC(=O)c1nnc(Nc2ccc(C(=O)N3CCCC3)cn2)cc1NCc1cccc(F)c1 [Compound 73]
8 | 10 to 100 | 10 to 100 | 100 to 1000 | CC(=O)N1CCN(c2ccc(Nc3cc(N[C@H](C)C(C)C)c(C(N)=O)nn3)cc2)CC1 [Compound 75]
9 | > 1000 | 10 to 100 | > 1000 | CC(=O)N1CCN(c2ccc(Nc3cc(NCc4ccc(Cl)s4)c(C(N)=O)nn3)cc2)CC1 [Compound 76]
10 | > 1000 | 10 to 100 | > 1000 | NC(=O)c1nnc(Nc2ncc(C(=O)N3CCOCC3)s2)cc1NCc1cccc(F)c1 [Compound 77]
11 | > 1000 | 100 to 1000 | > 1000 | CC(=O)N1CCN(c2ccc(Nc3cc(NCc4ccccn4)c(C(N)=O)nn3)cc2)CC1 [Compound 78]
12 | > 1000 | 100 to 1000 | > 1000 | CC(=O)N1CCN(c2ccc(Nc3cc(NCc4cccnc4)c(C(N)=O)nn3)cc2)CC1 [Compound 79]
13 | 100 to 1000 | 10 to 100 | > 1000 | NC(=O)c1nnc(Nc2ccc(C(=O)N3CCOCC3)cc2)cc1NCc1cccc(F)c1 [Compound 80]
14 | 100 to 1000 | 10 to 100 | > 1000 | CC(=O)N1CCN(C(=O)c2ccc(Nc3cc(NCc4cccc(F)c4)c(C(N)=O)nn3)cc2)CC1 [Compound 81]
15 | 100 to 1000 | 1 to 10 | 100 to 1000 | NC(=O)c1nnc(Nc2ccc(C(=O)N3CCCC3)cc2)cc1NCc1cc(F)cc(F)c1 [Compound 82]
16 | 100 to 1000 | 1 to 10 | > 1000 | NC(=O)c1nnc(Nc2ccc(C(=O)N3CCCC3)cc2)cc1NCc1cccc(F)c1F [Compound 83]
17 | > 1000 | 100 to 1000 | > 1000 | CS(=O)(=O)c1ccc(Nc2cc(NCc3cccc(F)c3)c(C(N)=O)nn2)cc1 [Compound 84]
18 | 100 to 1000 | 10 to 100 | 100 to 1000 | CS(=O)(=O)Cc1ccc(Nc2cc(NCc3cccc(F)c3)c(C(N)=O)nn2)cc1 [Compound 85]
19 | 100 to 1000 | 10 to 100 | > 1000 | CN(C)C(=O)C1CCN(c2ccc(Nc3cc(NCc4ccccc4F)c(C(N)=O)nn3)cc2)CC1 [Compound 86]
20 | 100 to 1000 | 1 to 10 | 100 to 1000 | CS(=O)(=O)Cc1ccc(Nc2cc(NCc3c(F)cccc3F)c(C(N)=O)nn2)cc1 [Compound 87]
21 | 100 to 1000 | 1 to 10 | 100 to 1000 | CS(=O)(=O)Cc1ccc(Nc2cc(NCc3cc(F)ccc3F)c(C(N)=O)nn2)cc1 [Compound 88]

Row | IC50 (JAK2) [nM] | IC50 (JAK3) [nM] | IC50 (JAK1) [nM] | SMILES
22 | 100 to 1000 | 10 to 100 | > 1000 | CN(C)C(=O)C1CCN(c2ccc(Nc3cc(NCc4cccc(F)c4)c(C(N)=O)nn3)cc2)CC1 [Compound 90]
23 | > 1000 | 10 to 100 | > 1000 | CS(=O)(=O)Cc1cccc(Nc2cc(NCc3cccc(F)c3)c(C(N)=O)nn2)c1 [Compound 91]
24 | 10 to 100 | 10 to 100 | 10 to 100 | CC(=O)N1CCN(c2ccc(Nc3cc(NC4CCN(c5ccc(C#N)cn5)CC4)c(C(N)=O)nn3)cc2)CC1 [Compound 92]
25 | 10 to 100 | 10 to 100 | 10 to 100 | CS(=O)(=O)Cc1ccc(Nc2cc(NC3CCN(c4ccc(C#N)cn4)CC3)c(C(N)=O)nn2)cc1 [Compound 93]
26 | 100 to 1000 | 1 to 10 | > 1000 | NC(=O)c1nnc(Nc2ccc(N3CCS(=O)(=O)CC3)cc2)cc1NCc1cccc(F)c1 [Compound 94]
27 | 100 to 1000 | 10 to 100 | > 1000 | CC(C)(c1ccc(Nc2cc(NCc3cccc(F)c3)c(C(N)=O)nn2)cc1)S(C)(=O)=O [Compound 95]
28 | 100 to 1000 | 10 to 100 | 100 to 1000 | CC(c1ccc(Nc2cc(NCc3cccc(F)c3)c(C(N)=O)nn2)cc1)S(C)(=O)=O (stereo not drawn) [Compound 96]
29 | 1 to 10 | 1 to 10 | 1 to 10 | N#Cc1ccc(N2CCC(Nc3cc(Nc4cnccn4)nnc3C(N)=O)CC2)nc1 [Compound 97]
30 | 100 to 1000 | 1 to 10 | 100 to 1000 | CS(=O)(=O)Cc1ccc(Nc2cc(NCc3cccc4ccsc34)c(C(N)=O)nn2)cc1 [Compound 100]
31 | 100 to 1000 | 100 to 1000 | > 1000 | CC(=O)N(C)c1ccc(Nc2cc(NCc3cccc(F)c3)c(C(N)=O)nn2)cc1 [Compound 101]
32 | 100 to 1000 | 10 to 100 | > 1000 | CN(c1ccc(Nc2cc(NCc3cccc(F)c3)c(C(N)=O)nn2)cc1)S(C)(=O)=O [Compound 102]
33 | 100 to 1000 | 10 to 100 | > 1000 | CC(=O)N1CCN(c2ccc(Nc3cc(NCc4cc(-n5ccnc5)ccc4F)c(C(N)=O)nn3)cc2)CC1 [Compound 103]
34 | 100 to 1000 | 10 to 100 | > 1000 | CC(=O)N1CCN(c2ccc(Nc3cc(NCc4cc(-c5cccnc5)ccc4F)c(C(N)=O)nn3)cc2)CC1 [Compound 104]
35 | 100 to 1000 | 10 to 100 | 100 to 1000 | C[S+]([O-])Cc1ccc(Nc2cc(NCc3cccc(F)c3)c(C(N)=O)nn2)cc1 (stereo not drawn) [Compound 105]
36 | 100 to 1000 | 10 to 100 | > 1000 | CC(C)n1cc(Nc2cc(NCc3cccc(F)c3)c(C(N)=O)nn2)cn1 [Compound 106]
37 | 100 to 1000 | 10 to 100 | > 1000 | NC(=O)c1nnc(Nc2ccc3c(c2)CS(=O)(=O)C3)cc1NCc1cccc(F)c1 [Compound 107]
38 | 100 to 1000 | 10 to 100 | > 1000 | CS(=O)(=O)CCc1ccc(Nc2cc(NCc3cccc(F)c3)c(C(N)=O)nn2)cc1 [Compound 108]
39 | 10 to 100 | 1 to 10 | 10 to 100 | CCC(=O)N1CCN(c2ccc(Nc3cc(NCc4cccc5[nH]ccc45)c(C(N)=O)nn3)cc2)CC1 [Compound 110]
40 | > 1000 | 100 to 1000 | > 1000 | NC(=O)c1nnc(Nc2cnccn2)cc1NCc1cccc(-n2ccnc2)c1 [Compound 111]
41 | 10 to 100 | 1 to 10 | 100 to 1000 | CC(C)n1cc(Nc2cc(NCc3cccc4ccsc34)c(C(N)=O)nn2)cn1 [Compound 112]
